In series [1] the target is Bromodomain-containing protein 4 (Homo sapiens, UniProt O60885). Briefly: Inhibition of BRD4 bromodomain 1 (unknown origin) by TR-FRET assay. For orientation: Time-resolved FRET reads energy transfer from a long-lived donor to a nearby acceptor.
Series [2] in a line: Kinetic solubility of compound. The note with it: read-out: Kinetic_solubility. It counts as physicochemical.
A short description of series [3]: Lipophilicity, LogD of compound. It counts as physicochemical. The note with it: octanol/water.
In series [4] the target is T1, SWI/SNF-related matrix-associated actin-dependent regulator of chromatin subfamily A member 2 (Homo sapiens, UniProt P51531). Briefly: Inhibition of SMARCA2 (unknown origin) by TR-FRET assay.
T1 sequence (P51531 whole entry): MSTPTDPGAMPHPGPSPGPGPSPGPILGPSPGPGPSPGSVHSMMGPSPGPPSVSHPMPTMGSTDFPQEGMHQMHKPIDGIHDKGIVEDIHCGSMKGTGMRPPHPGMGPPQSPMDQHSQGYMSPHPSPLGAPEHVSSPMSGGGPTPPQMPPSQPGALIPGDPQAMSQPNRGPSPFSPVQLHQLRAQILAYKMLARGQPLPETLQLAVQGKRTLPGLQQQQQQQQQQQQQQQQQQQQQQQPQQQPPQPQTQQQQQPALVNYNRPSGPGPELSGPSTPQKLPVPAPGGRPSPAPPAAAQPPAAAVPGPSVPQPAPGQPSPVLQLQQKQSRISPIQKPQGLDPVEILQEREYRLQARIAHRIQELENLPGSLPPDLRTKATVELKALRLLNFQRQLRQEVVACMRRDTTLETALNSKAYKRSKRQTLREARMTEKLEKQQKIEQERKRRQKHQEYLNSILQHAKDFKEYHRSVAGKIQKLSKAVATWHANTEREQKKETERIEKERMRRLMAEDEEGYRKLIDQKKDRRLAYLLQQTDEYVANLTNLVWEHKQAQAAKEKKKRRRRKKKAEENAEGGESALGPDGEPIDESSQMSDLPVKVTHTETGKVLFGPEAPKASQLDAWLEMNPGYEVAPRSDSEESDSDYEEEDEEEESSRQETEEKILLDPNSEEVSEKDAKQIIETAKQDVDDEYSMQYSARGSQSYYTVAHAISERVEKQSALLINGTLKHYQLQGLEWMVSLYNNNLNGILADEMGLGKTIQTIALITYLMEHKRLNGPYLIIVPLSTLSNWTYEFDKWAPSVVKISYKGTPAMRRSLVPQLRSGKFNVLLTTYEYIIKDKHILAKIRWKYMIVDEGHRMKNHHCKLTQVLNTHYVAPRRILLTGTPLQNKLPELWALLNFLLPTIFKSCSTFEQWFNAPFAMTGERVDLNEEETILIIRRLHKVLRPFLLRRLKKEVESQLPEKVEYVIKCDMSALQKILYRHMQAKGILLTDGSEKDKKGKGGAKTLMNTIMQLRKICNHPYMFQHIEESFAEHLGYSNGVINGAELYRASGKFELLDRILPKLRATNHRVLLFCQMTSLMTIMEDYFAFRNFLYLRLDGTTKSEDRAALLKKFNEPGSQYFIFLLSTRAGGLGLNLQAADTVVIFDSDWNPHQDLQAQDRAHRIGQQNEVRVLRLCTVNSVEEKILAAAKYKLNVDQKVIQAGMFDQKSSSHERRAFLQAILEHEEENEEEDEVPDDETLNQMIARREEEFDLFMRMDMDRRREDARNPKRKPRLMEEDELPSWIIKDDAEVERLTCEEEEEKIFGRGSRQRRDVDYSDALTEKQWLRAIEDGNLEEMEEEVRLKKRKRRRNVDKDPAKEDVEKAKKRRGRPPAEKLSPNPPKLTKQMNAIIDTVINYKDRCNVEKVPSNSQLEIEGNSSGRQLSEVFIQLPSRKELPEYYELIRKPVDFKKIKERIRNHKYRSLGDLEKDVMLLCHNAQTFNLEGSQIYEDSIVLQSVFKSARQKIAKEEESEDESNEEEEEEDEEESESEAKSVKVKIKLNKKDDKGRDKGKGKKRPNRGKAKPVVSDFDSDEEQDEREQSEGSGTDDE
The target in series [5] is T2, Protein polybromo-1 (Homo sapiens, UniProt Q86U86). In words: Inhibition of PBRM1 bromodomain 5 (unknown origin) by TR-FRET assay.
T2 sequence (Q86U86 whole entry): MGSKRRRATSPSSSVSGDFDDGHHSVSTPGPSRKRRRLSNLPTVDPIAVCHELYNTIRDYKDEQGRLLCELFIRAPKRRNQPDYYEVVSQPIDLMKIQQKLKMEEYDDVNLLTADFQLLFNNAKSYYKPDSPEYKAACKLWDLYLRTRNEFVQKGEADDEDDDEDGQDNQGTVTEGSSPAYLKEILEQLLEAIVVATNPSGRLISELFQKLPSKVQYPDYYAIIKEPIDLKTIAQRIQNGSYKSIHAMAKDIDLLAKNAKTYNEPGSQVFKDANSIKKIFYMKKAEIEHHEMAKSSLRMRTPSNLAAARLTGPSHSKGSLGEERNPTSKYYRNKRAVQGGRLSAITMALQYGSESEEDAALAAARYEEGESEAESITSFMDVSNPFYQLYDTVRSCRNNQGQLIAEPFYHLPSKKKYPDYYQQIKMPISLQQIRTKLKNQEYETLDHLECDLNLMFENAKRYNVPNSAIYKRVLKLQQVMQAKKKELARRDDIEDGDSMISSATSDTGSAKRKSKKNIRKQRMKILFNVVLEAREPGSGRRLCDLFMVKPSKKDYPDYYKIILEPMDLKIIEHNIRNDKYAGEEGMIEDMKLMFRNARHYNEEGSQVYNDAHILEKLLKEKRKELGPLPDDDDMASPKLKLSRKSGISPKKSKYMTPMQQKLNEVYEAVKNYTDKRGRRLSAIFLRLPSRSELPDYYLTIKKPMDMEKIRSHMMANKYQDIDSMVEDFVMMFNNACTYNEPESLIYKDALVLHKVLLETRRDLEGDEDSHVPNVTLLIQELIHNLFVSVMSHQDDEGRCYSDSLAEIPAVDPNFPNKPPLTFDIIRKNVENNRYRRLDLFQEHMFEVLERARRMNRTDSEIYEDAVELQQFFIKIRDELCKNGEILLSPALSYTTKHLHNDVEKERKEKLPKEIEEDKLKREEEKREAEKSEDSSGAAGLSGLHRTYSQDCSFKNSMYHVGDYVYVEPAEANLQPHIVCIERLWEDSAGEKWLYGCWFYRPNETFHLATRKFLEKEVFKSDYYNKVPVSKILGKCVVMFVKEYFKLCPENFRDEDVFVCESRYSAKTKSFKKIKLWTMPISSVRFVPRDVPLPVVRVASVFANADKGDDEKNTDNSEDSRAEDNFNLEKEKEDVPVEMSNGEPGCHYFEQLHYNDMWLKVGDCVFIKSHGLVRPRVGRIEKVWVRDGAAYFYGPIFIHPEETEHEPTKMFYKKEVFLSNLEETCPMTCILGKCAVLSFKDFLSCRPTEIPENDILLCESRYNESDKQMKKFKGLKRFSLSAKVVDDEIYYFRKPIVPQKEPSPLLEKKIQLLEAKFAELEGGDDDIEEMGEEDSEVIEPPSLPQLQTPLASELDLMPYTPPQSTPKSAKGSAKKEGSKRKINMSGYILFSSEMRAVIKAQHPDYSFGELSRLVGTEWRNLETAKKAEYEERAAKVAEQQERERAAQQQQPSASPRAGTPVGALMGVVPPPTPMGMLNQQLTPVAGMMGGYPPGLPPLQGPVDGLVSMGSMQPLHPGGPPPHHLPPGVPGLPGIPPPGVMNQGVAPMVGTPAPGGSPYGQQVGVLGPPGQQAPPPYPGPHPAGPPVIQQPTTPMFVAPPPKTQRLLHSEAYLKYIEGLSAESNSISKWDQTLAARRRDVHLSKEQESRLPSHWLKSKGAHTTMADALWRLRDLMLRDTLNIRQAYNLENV
The target in series [6] is T3, SWI/SNF-related matrix-associated actin-dependent regulator of chromatin subfamily A member 4 (Homo sapiens, UniProt P51532). Briefly: Binding affinity to His6/FLAG-tagged SMARCA4 (unknown origin) by isothermal titration calorimetric assay.
T3 sequence (P51532 whole entry, the tested form may be a part): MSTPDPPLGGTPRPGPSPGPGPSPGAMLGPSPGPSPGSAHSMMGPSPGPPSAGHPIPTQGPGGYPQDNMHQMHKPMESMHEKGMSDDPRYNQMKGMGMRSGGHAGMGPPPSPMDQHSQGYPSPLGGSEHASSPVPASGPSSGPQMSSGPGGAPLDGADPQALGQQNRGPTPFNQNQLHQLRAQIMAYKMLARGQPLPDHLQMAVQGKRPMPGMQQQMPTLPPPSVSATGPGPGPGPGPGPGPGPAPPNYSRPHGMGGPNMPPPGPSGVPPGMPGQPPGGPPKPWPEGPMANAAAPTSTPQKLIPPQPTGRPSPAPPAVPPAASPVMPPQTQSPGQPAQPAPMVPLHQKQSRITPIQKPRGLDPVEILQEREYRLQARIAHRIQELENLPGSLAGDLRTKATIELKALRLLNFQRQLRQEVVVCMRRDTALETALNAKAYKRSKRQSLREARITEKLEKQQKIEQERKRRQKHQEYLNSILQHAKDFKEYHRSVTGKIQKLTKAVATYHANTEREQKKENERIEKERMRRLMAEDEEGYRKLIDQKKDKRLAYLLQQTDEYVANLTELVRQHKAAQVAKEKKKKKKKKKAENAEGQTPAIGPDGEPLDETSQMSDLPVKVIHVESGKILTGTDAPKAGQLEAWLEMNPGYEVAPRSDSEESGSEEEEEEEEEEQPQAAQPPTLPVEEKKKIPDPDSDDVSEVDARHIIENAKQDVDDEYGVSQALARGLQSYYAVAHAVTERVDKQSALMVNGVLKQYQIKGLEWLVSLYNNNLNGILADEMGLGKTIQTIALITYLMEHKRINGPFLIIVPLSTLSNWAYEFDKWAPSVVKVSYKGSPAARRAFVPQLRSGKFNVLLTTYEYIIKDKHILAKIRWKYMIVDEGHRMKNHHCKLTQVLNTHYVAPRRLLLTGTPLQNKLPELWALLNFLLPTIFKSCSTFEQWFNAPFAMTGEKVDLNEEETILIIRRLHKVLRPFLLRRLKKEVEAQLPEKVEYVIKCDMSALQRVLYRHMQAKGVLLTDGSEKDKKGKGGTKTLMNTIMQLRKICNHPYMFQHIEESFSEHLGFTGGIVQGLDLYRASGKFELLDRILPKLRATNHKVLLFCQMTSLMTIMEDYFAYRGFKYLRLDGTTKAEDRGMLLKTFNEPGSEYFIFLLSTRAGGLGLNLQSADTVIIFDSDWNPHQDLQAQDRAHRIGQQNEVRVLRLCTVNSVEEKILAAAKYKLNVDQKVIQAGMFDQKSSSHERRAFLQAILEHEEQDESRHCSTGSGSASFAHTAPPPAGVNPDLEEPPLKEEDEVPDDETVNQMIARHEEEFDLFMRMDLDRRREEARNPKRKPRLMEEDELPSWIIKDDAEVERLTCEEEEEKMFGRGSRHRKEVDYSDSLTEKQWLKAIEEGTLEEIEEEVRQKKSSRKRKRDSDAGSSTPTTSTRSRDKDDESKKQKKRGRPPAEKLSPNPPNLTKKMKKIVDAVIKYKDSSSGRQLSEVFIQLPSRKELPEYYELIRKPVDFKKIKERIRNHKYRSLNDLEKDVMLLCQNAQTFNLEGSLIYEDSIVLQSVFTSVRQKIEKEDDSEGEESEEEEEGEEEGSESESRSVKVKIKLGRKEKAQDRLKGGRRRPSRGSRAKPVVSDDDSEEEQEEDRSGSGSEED
For series [7], the target named is T3, SWI/SNF-related matrix-associated actin-dependent regulator of chromatin subfamily A member 4. In words: Binding affinity to human SMARCA4 (A1448 to S1575 residues) expressed in bacterial expression system by bromoscan assay.
The target in series [8] is T1, SWI/SNF-related matrix-associated actin-dependent regulator of chromatin subfamily A member 2. In words: Binding affinity to human SMARCA2 (S1337 to Q1486 residues) expressed in bacterial expression system by bromoscan assay.
The target of series [9] is T2, Protein polybromo-1. In words: Binding affinity to human PBRM1 bromodomain 5 (S645 to D766 residues) expressed in bacterial expression system by bromoscan assay.
The target in series [10] is T2, Protein polybromo-1. Briefly: Binding affinity to human PBRM1 bromodomain 2 (S178 to E291 residues) expressed in bacterial expression system by bromoscan assay.
For series [11], the target named is T3, SWI/SNF-related matrix-associated actin-dependent regulator of chromatin subfamily A member 4.
Series [12] concerns the target Cytochrome P450 3A4 (Homo sapiens, UniProt P08684). In words: Inhibition of CYP3A4 (unknown origin). It counts as ADME.
The target in series [13] is T4, Cytochrome P450 2C8 (Homo sapiens, UniProt P10632).
T4 sequence (P10632 whole entry): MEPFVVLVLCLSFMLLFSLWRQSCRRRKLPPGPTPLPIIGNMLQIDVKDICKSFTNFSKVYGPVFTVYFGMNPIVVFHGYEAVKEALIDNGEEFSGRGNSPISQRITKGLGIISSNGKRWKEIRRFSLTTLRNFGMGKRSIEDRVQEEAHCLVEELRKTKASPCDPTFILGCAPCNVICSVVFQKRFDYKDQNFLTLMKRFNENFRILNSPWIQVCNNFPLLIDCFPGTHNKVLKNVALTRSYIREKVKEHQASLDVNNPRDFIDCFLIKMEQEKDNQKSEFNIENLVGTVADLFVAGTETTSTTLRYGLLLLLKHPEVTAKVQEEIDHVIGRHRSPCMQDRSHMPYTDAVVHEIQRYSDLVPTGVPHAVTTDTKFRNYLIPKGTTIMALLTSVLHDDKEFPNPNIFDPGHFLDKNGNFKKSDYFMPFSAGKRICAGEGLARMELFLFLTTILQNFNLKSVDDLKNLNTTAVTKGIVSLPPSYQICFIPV
In words: Inhibition of CYP2C8 (unknown origin). It counts as ADME.

The target of series [14] is Cytochrome P450 2C19 (Homo sapiens, UniProt P33261). In words: Inhibition of CYP2C19 (unknown origin). It counts as ADME.
Series [15] deals with T5, Cytochrome P450 1A2 (Homo sapiens, UniProt P05177).
T5 sequence (P05177 whole entry): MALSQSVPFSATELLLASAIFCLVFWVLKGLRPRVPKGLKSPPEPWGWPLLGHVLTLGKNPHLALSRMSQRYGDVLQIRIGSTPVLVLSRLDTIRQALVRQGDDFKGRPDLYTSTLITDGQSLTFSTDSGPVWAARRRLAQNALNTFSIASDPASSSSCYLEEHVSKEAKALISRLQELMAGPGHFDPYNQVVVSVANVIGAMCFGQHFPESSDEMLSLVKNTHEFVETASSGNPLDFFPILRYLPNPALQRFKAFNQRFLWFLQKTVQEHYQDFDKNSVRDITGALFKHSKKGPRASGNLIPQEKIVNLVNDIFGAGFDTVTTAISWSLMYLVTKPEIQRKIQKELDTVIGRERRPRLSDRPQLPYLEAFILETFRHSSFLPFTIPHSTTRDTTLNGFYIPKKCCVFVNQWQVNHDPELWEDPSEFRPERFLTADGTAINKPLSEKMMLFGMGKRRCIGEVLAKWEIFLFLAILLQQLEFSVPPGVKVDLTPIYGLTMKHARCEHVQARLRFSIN
Briefly: Inhibition of CYP1A2 (unknown origin). It counts as ADME.

Series [16] concerns the target Cytochrome P450 2C9 (Homo sapiens, UniProt P11712). Briefly: Inhibition of CYP2C9 (unknown origin). It counts as ADME.
Series [17] deals with Cytochrome P450 2D6 (Homo sapiens, UniProt P10635). Briefly: Inhibition of CYP2D6 (unknown origin). It counts as ADME.
A short description of series [18]: Protein binding in mouse plasma. Format: ADME, cell-free. To be noted: read-out: PPB (converted).
The nature of series [19]: Protein binding in rat plasma. It counts as ADME, cell-free. The note with it: read-out: PPB (converted).
Series [20] can be described thus: Protein binding in human plasma. It counts as ADME, cell-free. To be noted: read-out: PPB (converted).
Series [21] is described as follows: Clearance in CD-1 mouse at 0.5 mg/kg, iv. It counts as ADME, organism-based. The note with it: in vivo.
Series [22] can be described thus: Unbound clearance in CD-1 mouse at 0.5 mg/kg, iv. It counts as ADME, organism-based. To be noted: in vivo.
Series [23] is described as follows: Half life in CD-1 mouse at 0.5 mg/kg, iv. The note with it: in vivo. It counts as ADME, organism-based.
Series [24] is described as follows: Volume of distribution at steady state in CD-1 mouse at 0.5 mg/kg, iv. It counts as ADME, organism-based. The note with it: in vivo, read-out: Vdss.
A short description of series [25]: Unbound volume of distribution at steady state in CD-1 mouse at 0.5 mg/kg, iv. Format: ADME, organism-based. To be noted: in vivo.
The nature of series [26]: Cmax in CD-1 mouse at 1 mg/kg, po. Format: ADME, organism-based. The arrangement: dose 1 mg/kg, route po. The note with it: in vivo.
Series [27] can be described thus: Oral bioavailability in CD-1 mouse at 1 mg/kg. Format: ADME, organism-based. To be noted: in vivo.
The nature of series [28]: Tmax in CD-1 mouse at 1 mg/kg, po. Format: ADME, organism-based. To be noted: in vivo.
Series [29] is described as follows: Fraction unbound in CD-1 mouse at 1 mg/kg, po. The note with it: in vivo. Format: ADME, organism-based.

The IC50 is the concentration that gives 50% inhibition. In general, logD refers to lipophilicity at a set pH, counting ionised and neutral species. A high value points to higher lipophilicity. By Kd is commonly meant the constant that tells how readily two partners part at equilibrium. Read a low Kd as tighter binding. As a reminder, the clearance is the rate of elimination divided by the concentration. A higher clearance goes with a high capacity for elimination. Broadly, the half-life is the time needed for the level to fall by half in the phase considered. Higher therefore signals slow loss. As usually defined, the Cmax is the highest concentration seen after dosing. As usually defined, the bioavailability is the share of a dose that reaches the circulation, judged against a reference dose that is usually intravenous. As usually defined, the Tmax is the time from dosing to the highest level.

Structures are written as SMILES. In brackets after ≈: the same amount, converted by molar mass. Bounds are passed on as bounds.

Consider `Nc1nnc(-c2ccccc2O)cc1-c1ccccc1`, for which, in [1], the IC50 turned out to be 27 µM. For the same molecule, the solubility kinetic in [2] came out at 11 µM (≈ 2.9 µg/mL). In series [3], this molecule came in with a logD of 3.3.
In the case of `Nc1nnc2c([nH]c3ccccc32)c1-c1ccccc1`, the IC50 in [4] was 4.3 µM; in series [5], 3.1 µM; in series [1], greater than 100 µM; in series [11], 5.3 µM. The Kd in [6] is 3.5 µM; in [7], 0.51 µM; in series [8] it was 0.34 µM; in [9], 0.58 µM; in series [10], 0.17 µM.
Consider `Nc1nnc(-c2ccccc2)cc1-c1ccccc1`, for which the half-inhibitory concentration (IC50) in series [1] was greater than 100 µM; in series [11] it was 57.1 µM. Further, the Kd is 10 µM in series [7], 4.4 µM in series [8], 27 µM in series [9] and 5.7 µM in series [10].
`CC(=O)N1CCN(c2cc(-c3ccccc3O)nnc2N)C[C@H]1C`: the IC50 is 34 µM in series [1]; greater than 10 µM in series [12]; greater than 10 µM in series [13]; greater than 10 µM in series [14]; greater than 10 µM in [15]; greater than 10 µM in series [16]. In series [17], this molecule returned an IC50 greater than 10 µM. The solubility kinetic in series [2] stood at 120 µM (≈ 39.3 µg/mL). The logD in series [3] is 2. In addition, the fraction unbound was 0.31 in series [18], 0.41 in [19], 0.24 in series [20] and 0.31 in series [29]. This molecule showed a clearance in series [21] of 16 mL/min/kg. Further, the CL free in series [22] stood at 52 mL/min/kg. The molecule further had a half-life in series [23] of 66 min. Besides, the Vd in series [24] was 1 L/kg. In [25], this molecule gave a Vduss of 3.2 L/kg. For the same molecule, the concentration in series [26] peaked (Cmax) at 1000 nM. Also, the bioavailability in series [27] was determined as 59%. For the same molecule, in series [28], the Tmax was found to be 30 min.

Source of the values: ChEMBL document CHEMBL5137085, “GNE-064: A Potent, Selective, and Orally Bioavailable Chemical Probe for the Bromodomains of SMARCA2 and SMARCA4 and the Fifth Bromodomain of PBRM1” (J Med Chem, 2022).
